# Reference: US6555710B1, “Aminobenzophenones as inhibitors of IL-1 β and TNF-α” (Leo Pharmaceutical Products Ltd a/s Lovens Kemiske Fabrik …, priority 1999, dated 2003)
# Experiments:
# Type in all cases: cell-based
# [1] = tested on: TNF-α; assay: Inhibition of TNF-α secretion in LPS stimulated peripheral blood mononuclear cells (ELISA); details: PBMC; LPS stimulated human peripheral blood mononuclear cells, 18 hours; read-out: The median inhibition concentration (IC50) of TNF-α
# Procedure: (§1) To study the effect of the compound of the present invention in vitro the inhibition of the IL-1β and TNF-α secretion was measured using the following procedure:
# (§2) Cytokine production was measured in the media from lipopolysaccharide (LPS) stimulated peripheral blood mononuclear cells. The mononuclear cells were isolated from human peripheral blood by Lymphoprep® (Nycomed, Norway) fractionation and suspended in RPMI 1640 (growth medium) with foetal calv serum (FCS, 2%), at a concentration of 5×10^5 cells/ml. The cells were incubated in 24-well tissue culture plates in 1 ml aliquots. Test compounds were dissolved in dimethylsulfoxide (DMSO, 10 mM) and were diluted with the medium. Compounds were added to the cells for 30 minutes, then LPS ([…] final concentration) was added. The plates were incubated for 18 hours, and the concentration of IL-1β and TNF-α in the medium was determined by enzyme-linked immunosorbent assays. The median inhibitory concentrations (IC50) of the compounds were calculated.
# [2] = tested on: IL-1β; assay: Inhibition of IL-1β secretion in LPS stimulated peripheral blood mononuclear cells (ELISA); details: PBMC; LPS stimulated human peripheral blood mononuclear cells, 18 hours; read-out: The median inhibition concentration (IC50) of IL-1β
# Procedure: as §1, §2
# [3] = tested on: Human polymorphonuclear (PMN) granulocytes; assay: Inhibition of PMN superoxide secretion (ferricytochrome C reduction, TNF-α primed, fMLP stimulated); details: read-out: The median inhibition concentration (IC50) of PMN-superoxide
# Procedure: The compounds of the present invention also show similar activities in the ability to inhibit PMN (polymorphonuclear) superoxide secretion which is also indicative of potentially useful anti-inflammatory drugs. The compounds were tested using the following procedure:
# Human polymorphonuclear (PMN) granulocytes were isolated from human blood by dextran sedimentation, Lymphoprep® fractionation and hypotonic lysis of contaminating erythrocytes. Superoxide anion generation was measured as the superoxide dismutase inhibitable reduction of ferricytochrome C (Madhu, S. B. et al, Inflammation, 16, 241, (1992)). The cells were suspended in Hanks' balanced salt solution, and incubated for 10 minutes at 37° C. with test compounds. The cells were primed by the addition of TNF-α (3 ng/ml final concentration) for 10 minutes, and then ferricytochrome C, (final concentration 750 μg/ml), bovine serum albumin (BSA, final concentration 1 mg/ml) and formyl-methionyl-leucyl-phenylalanine (fMLP, final concentration 10^−7 M) were added for 3 minutes. The cells were chilled on ice, and were spun down. The optical densities in the cell-free supernatant was measured in a spectrophotometer. The median inhibitory concentration (IC50) of the compounds was calculated.
IC50 [1],IC50 [2],IC50 [3],SMILES
6.3 nM,32 nM,13 nM,"Cc1ccccc1C(=O)c1ccc(Nc2ccc(Br)cc2NC(=O)C(F)(F)F)cc1Cl [Compound 101, 2,2,2-Trifluoro-N-[5-bromo-2-[3-chloro-4-(2-methylbenzoyl)-phenylamino]-phenyl]acetamide]"
3.2 nM,6.3 nM,25 nM,"Cc1ccccc1C(=O)c1ccc(Nc2ccc(F)cc2NC(=O)C(F)(F)F)cc1Cl [Compound 102, 2,2,2-Trifluoro-N-[2-[3-chloro-4-(2-methylbenzoyl)-phenylamino]-5-fluoro-phenyl]acetamide]"
4 nM,20 nM,13 nM,"Cc1ccccc1C(=O)c1ccc(Nc2ccccc2NC(=O)C(F)(F)F)cc1Cl [ref. b), 2,2,2-Trifluoro-N-[2-[3-chloro-4-(2-methylbenzoyl)-phenylamino]-phenyl]acetamide, reference compound]"
